Reference: patent US20060057669A1, “Inactive transcription factor tif-ia and uses thereof” (priority 2002, published 2006)
Where two headings read alike, the source gives them in different places.

Tested on: Pol I transcription
Assay: Complementation of Pol I transcription in nuclear extracts from rapamycin-treated FM3A cells
Format: biochemical
Protocol: (B) Complementation of transcriptional activity in nuclear extracts from rapamycin-treated cells. Transcription reactions contained nuclear extracts (30 μg) from untreated (NE) or rapamycin-treated (NERapa) FM3A cells. In lanes 3-7, fractions containing partially purified Pol I transcription factors were added to NERapa-containing reactions.
(C) TIF-IA activates transcription in nuclear extracts form rapamycin-treated cells. Reactions were complemented with either 1 μl (lanes 2 and 5) of cellular TIF-IA (PL-650 fraction) or 20 ng (lanes 3 and 6) of immunopurified recombinant TIF-IA that has been expressed in SF9 cells.
(A) mTOR rescues transcription in vitro. Pol I transcription was assayed in nuclear extracts from rapamycin-treated FM3A cells. Reactions were supplemented with 50 ng TIF-IA (lane 1) or 10 ng, 20 ng and 30 ng of HA-mTOR (lanes 3-5).
(B) S6K1 activates Pol I transcription in extracts from rapamycin-treated cells. NERapa was supplemented with 50 ng TIF-IA (lane 1) or 100, 150 and 200 ng of GST-S6K1 (lanes 3-5) or GST-S6K1dd (lanes 6-8).
Nuclear extracts were prepared from exponentially growing (8×10^5 cells/ml), density-arrested or PD98059-treated (CN Bioscience, Bad Soden, Germany) 40 μM, 0.5 hr) or rapamycin-treated FM3A cells (ATCC, Manassas, USA). 25 μl assays contained 50 ng of template DNA (pMr600/EcoRI), 30 μg nuclear extract proteins and 12 mM Hepes-KOH, [pH8.0], 0.1 mM EDTA, 5 mM MgCl2, 80 mM KCl, 10 mM creatine phosphate, 12% (v/v) glycerol, 0.66 mM each of ATP, GTP and CTP, 0.01 mM UTP and 0.5 μCi [α-^32P]UTP (5000 Ci/mmol). After incubation for 60 min at 30° C., RNA was extracted and analyzed on non-denaturing 5% polyacrylamide gels
mTOR and S6K1 were purified from HEK293T cells overexpressing HA-tagged mTOR or GST/myc-tagged S6K1, respectively. 5×10^6 cells were lysed in 0.8 ml IP buffer, centrifuged at 10,000×g for 20 min, and the supernatants were incubated for 4 hr at 4° C. with either 15 μg anti-HA antibodies bound to 20 μl protein G-agarose (for HA-mTOR) or 20 μl packed GST-glutathione beads (for GST-myc-S6K1). […]

TIF-IA: wild-type human transcription initiation factor TIF-IA, accession No. AJ272050
rescue of Pol I transcription in extracts from rapamycin-treated cells: relieved rapamycin-mediated transcriptional repression | rescue of Pol I transcription in extracts from rapamycin-treated cells (listed as recombinant TIF-IA): restored transcriptional activity
